Like-named read-outs stand apart in the source and are kept apart here.
Legend:
[1] = system: icilin induced wet-dog shakes; experiment: Inhibition of icilin induced shaking (wet-dog shakes) in rats; type: in vivo; conditions: Rattus norvegicus, po; dose 1 mg/kg p.o., 2 h before icilin; male Sprague Dawley rats; shakes counted for 30 min post-icilin
Experimental: Inhibition of Icilin Induced Shaking in Rats
Example compounds at doses ranging from 0.01 to 3 mg/kg (p.o, suspended in 5% Tween80/Oralplus or suspended in 2% HPMC-1% Tween-80 pH2.2 with MSA, 5 mL/kg) were administered to male Sprague Dawley rats (200-300 g, Harlan, n=6-8/treatment) 2 h before icilin to assess the ability to block the spontaneous wet-dog shake phenomena induced by icilin (i.p., suspended in 100% PEG400 at 0.5 mg/kg, 1 mL/kg or p.o., suspended in 2% HPMC-1% Tween-80 at 3 mg/kg, 2.5 mL/kg). Spontaneous wet-dog shakes were counted manually by two blinded observers or using LABORAS automation (Metris) for 30 min post-icilin.

human TRPM8 = target: T1, human TRPM8 (Homo sapiens, UniProt Q7Z2W7); experiment: Luminescence readout assay for measuring intracellular calcium, icilin activation; type: cell-based; conditions: 1 μM icilin activation
T1 construct: expressed in transfected cells; host or cells: Chinese hamster ovary (CHO) cells, T-REx tetracycline-inducible system, co-transfected with aequorin
T1 sequence (Q7Z2W7 whole entry): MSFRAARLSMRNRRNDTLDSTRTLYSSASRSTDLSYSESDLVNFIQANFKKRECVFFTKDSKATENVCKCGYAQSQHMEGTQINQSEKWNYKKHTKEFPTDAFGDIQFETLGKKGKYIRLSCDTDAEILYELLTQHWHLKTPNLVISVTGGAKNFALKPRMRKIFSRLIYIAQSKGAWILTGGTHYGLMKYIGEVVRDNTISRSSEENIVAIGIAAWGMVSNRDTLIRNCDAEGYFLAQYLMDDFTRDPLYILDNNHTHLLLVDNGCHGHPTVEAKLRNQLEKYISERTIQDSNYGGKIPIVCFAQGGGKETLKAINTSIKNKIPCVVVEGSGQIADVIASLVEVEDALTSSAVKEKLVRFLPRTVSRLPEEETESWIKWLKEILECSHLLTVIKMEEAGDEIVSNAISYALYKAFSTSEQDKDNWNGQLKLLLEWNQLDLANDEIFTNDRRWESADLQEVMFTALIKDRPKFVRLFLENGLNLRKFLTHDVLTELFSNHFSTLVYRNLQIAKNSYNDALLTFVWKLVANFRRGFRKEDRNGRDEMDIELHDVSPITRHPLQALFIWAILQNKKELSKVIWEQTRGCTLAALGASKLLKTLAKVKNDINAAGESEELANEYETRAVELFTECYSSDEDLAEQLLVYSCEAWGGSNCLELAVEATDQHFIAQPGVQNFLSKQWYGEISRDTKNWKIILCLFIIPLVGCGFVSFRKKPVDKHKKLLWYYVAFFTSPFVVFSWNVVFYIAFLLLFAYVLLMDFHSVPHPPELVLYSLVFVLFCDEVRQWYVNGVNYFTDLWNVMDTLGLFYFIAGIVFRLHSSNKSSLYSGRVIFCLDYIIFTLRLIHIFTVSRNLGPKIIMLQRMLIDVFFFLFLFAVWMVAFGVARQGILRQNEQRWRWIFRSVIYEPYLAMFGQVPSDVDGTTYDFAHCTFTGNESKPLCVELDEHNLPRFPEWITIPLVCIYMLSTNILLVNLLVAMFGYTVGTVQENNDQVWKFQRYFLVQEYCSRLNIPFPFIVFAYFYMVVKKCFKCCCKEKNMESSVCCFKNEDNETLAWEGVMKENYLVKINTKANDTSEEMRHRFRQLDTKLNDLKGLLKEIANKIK
Method in brief: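 The read-out was luminescence reporting intracellular calcium, recorded by a CCD-based luminometer. Compounds were preincubated for 2.5 min before agonist challenge with 1 μM icilin. Human TRPM8 was expressed in a stable T-REx CHO line, induced with 0.5 μg/mL tetracycline the day before.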

[2] = CHO cells expressing human TRPM8, aequorin luminescence, read-out: hTRPM8 IC50

| SMILES | inhibition in vivo at 1 mg/kg [1] | IC50 (human TRPM8; [2]) | IC50 (human TRPM8; hTRPM8 IC50, CHO cells expressing human TRPM8, aequorin luminescence) |
| --- | --- | --- | --- |
| O=C(N[C@@H](c1ccc(OC(F)(F)F)cc1)c1ncccc1F)c1ccc2oc(=O)[nH]c2c1 [Example 79, (S)-N-((3-fluoropyridin-2-yl)(4-(trifluoromethoxy)phenyl)methyl)-2-oxo-2,3-dihydrobenzo[d]oxazole-5-carboxamide] | 99% | 5.1 nM |  |
| O=C(N[C@@H](c1ccc(OC(F)(F)F)c(F)c1)c1ccccn1)c1ccc(=O)[nH]c1 [Example 293, (S)-N-((3-fluoro-4-(trifluoromethoxy)phenyl)(pyridin-2-yl)methyl)-6-oxo-1,6-dihydropyridine-3-carboxamide] | 96% | 13.7 nM |  |
| O=C(N[C@@H](c1ccc(OC(F)(F)F)c(F)c1)c1ncccc1F)c1ccc(=O)n(CCO)c1 [Example 297, (S)-N-((3-fluoro-4-(trifluoromethoxy)phenyl)(3-fluoropyridin-2-yl)methyl)-1-(2-hydroxyethyl)-6-oxo-1,6-dihydropyridine-3-carboxamide] | 78% | 16.8 nM |  |
| O=C(N[C@@H](c1ccc(OC(F)(F)F)cc1F)c1ncccc1F)c1ccc(=O)[nH]c1 [Example 386, (S)-N-((2-fluoro-4-(trifluoromethoxy)phenyl)(3-fluoropyridin-2-yl)methyl)-6-oxo-1,6-dihydropyridine-3-carboxamide 2,2,2-trifluoroacetate] | 97% | 10.5 nM |  |
| O=C(N[C@@H](c1ccc(C(F)(F)F)cc1)c1ncccc1F)c1ccc(=O)n(CCO)c1 [Example 370, (S)-N-((3-fluoropyridin-2-yl)(4-(trifluoromethyl)phenyl)methyl)-1-(2-hydroxyethyl)-6-oxo-1,6-dihydropyridine-3-carboxamide] | 50% | 33.7 nM |  |
| C[C@@H](O)Cn1cc(C(=O)N[C@@H](c2ccc(OC(F)(F)F)c(F)c2)c2ncccc2F)ccc1=O [Example 299, N-((S)-(3-fluoro-4-(trifluoromethoxy)phenyl)(3-fluoropyridin-2-yl)methyl)-1-((R)-2-hydroxypropyl)-6-oxo-1,6-dihydropyridine-3-carboxamide] | 56% | 17.5 nM |  |
| Cc1cccnc1[C@@H](NC(=O)c1ccc(=O)n(C)c1)c1ccc(OC(F)(F)F)c(F)c1 [Example 348, (S)-N-((3-fluoro-4-(trifluoromethoxy)phenyl)(3-methylpyridin-2-yl)methyl)-1-methyl-6-oxo-1,6-dihydropyridine-3-carboxamide] | 51% | 15.4 nM |  |
| Cn1cc(C(=O)N[C@@H](c2ccc(C(F)(F)F)cc2)c2ncccc2F)ccc1=O [Example 68, (S)-N-((3-fluoropyridin-2-yl)(4-(trifluoromethyl)phenyl)methyl)-1-methyl-6-oxo-1,6-dihydropyridine-3-carboxamide] | 100% | 14.2 nM |  |
| Cc1cc(C(=O)N[C@@H](c2ccc(C(F)(F)F)cc2)c2ncccc2F)c[nH]c1=O [Example 373, (S)-N-((3-fluoropyridin-2-yl)(4-(trifluoromethyl)phenyl)methyl)-5-methyl-6-oxo-1,6-dihydropyridine-3-carboxamide] | 64% | 20.6 nM |  |
| O=C(N[C@@H](c1ccc(OC(F)(F)F)cc1)c1ncccc1F)c1ccc(=O)[nH]c1 [Example 1, (S)-N-((3-fluoropyridin-2-yl)(4-(trifluoromethoxy)phenyl)methyl)-6-oxo-1,6-dihydropyridine-3-carboxamide] | 100% | 9.8 nM |  |
| O=C(N[C@@H](c1ccc(C(F)(F)F)cc1)c1ncccc1F)c1ccc2oc(=O)[nH]c2c1 [Example 76, (S)-N-((3-fluoropyridin-2-yl)(4-(tnfluoromethyl)phenyl)methyl)-2-oxo-2,3-dihydrobenzo[d]oxazole-5-carboxamide] | 100% | 4.5 nM |  |
| O=C1Cc2cc(C(=O)N[C@@H](c3ccc(OC(F)(F)F)cc3)c3ncccc3F)ccc2N1 [Example 91, (S)-N-((3-fluoropyridin-2-yl)(4-(trifluoromethoxy)phenyl)methyl)-2-oxoindoline-5-carboxamide] | 100% | 13.7 nM |  |
| CN(C)c1ccc(C(=O)N[C@@H](c2ccc(C(F)(F)F)cc2)c2ncccc2C(F)(F)F)cc1 [Example 196, (S)-4-(dimethylamino)-N-((4-(trifluoromethyl)phenyl)(3-(trifluoromethyl)pyridin-2-yl)methyl)benzamide] |  | 67.1 nM |  |
| O=C(N[C@@H](c1cc(F)cc(F)c1)c1ncccc1F)c1ccc(=O)[nH]c1 [Example 329, (S)-N-((3,5-difluorophenyl)(3-fluoropyridin-2-yl)methyl)-6-oxo-1,6-dihydropyridine-3-carboxamide] |  | 841 nM |  |
| O=C(N[C@@H](c1ccc(C(F)(F)F)cc1)c1ncccc1C(F)(F)F)c1ccnnc1 [Example 212, (S)-N-((4-(trifluoromethyl)phenyl)(3-(trifluoromethyl)pyridin-2-yl)methyl)pyridazine-4-carboxamide] |  | 81.5 nM |  |
| CS(=O)(=O)c1ccc(C(=O)N[C@@H](c2ccc(C(F)(F)F)cc2)c2ncccc2F)cc1 [Example 217, (S)-N-((3-fluoropyridin-2-yl)(4-(trifluoromethyl)phenyl)methyl)-4-(methylsulfonyl)benzamide] |  | 147 nM |  |
| O=C(N[C@@H](c1ccc(Cl)cc1)c1ncccc1C(F)(F)F)c1ccc2cccnc2c1 [Example 6, (S)-N-((4-chlorophenyl)(3-(trifluoromethyl)pyridin-2-yl)methyl)quinoline-7-carboxamide] |  | 73.9 nM |  |
| Cc1ccc(F)c([C@@H](NC(=O)c2ccc(=O)[nH]c2)c2ccc(C(F)(F)F)cc2)n1 [Example 410, (S)-N-((3-fluoro-6-methylpyridin-2-yl)(4-(trifluoromethyl)phenyl)methyl)-6-oxo-1,6-dihydropyridine-3-carboxamide] |  | 71.8 nM |  |
| O=C(N[C@@H](c1ccc(C(F)(F)F)cc1)c1ncccc1C(F)(F)F)c1ccc[nH]c1=O [Example 59, (S)-2-oxo-N-((4-(trifluoromethyl)phenyl)(3-(trifluoromethyl)pyridin-2-yl)methyl)-1,2-dihydropyridine-3-carboxamide] |  | 41.6 nM |  |
| O=C(N[C@@H](c1ccc(C(F)(F)F)cc1)c1ncccc1F)c1ccc2[nH]c(=O)[nH]c2c1 [Example 177, (S)-N-((3-fluoropyridin-2-yl)(4-(trifluoromethyl)phenyl)methyl)-2-oxo-2,3-dihydro-1H-benzo[d]imidazole-5-carboxamide] |  | 20.8 nM |  |
| O=C(Cc1ccccn1)N[C@@H](c1ccc(OC(F)(F)F)c(F)c1)c1ncccc1F [Example 288, (S)-N-((3-fluoro-4-(trifluoromethoxy)phenyl)(3-fluoropyridin-2-yl)methyl)-2-(pyridin-2-yl)acetamide] |  | 139 nM |  |
| O=C(N[C@@H](c1ccc(C(F)(F)F)c(F)c1)c1ncccc1C(F)(F)F)c1ccc2ncccc2c1 [Example 130, (S)-N-((3-fluoro-4-(trifluoromethyl)phenyl)(3-(trifluoromethyl)pyridin-2-yl)methyl)quinoline-6-carboxamide bis (2,2,2-trifluoroacetate)] |  | 24.7 nM |  |
| O=C(N[C@@H](c1ccc2ccccc2c1)c1ncccc1C(F)(F)F)c1ccc2cccnc2c1 [Example 15, (S)-N-(naphthalen-2-yl(3-(trifluoromethyl)pyridin-2-yl)methyl)quinoline-7-carboxamide] |  | 117 nM |  |
| Cn1nc(C(=O)N[C@@H](c2ccc(C(F)(F)F)cc2)c2ncccc2C(F)(F)F)c2ccccc21 [Example 215, (S)-1-methyl-N-((4-(trifluoromethyl)phenyl)(3-(trifluoromethyl)pyridin-2-yl)methyl)-1H-indazole-3-carboxamide] |  |  | 84.5 nM |
| O=C(N[C@@H](c1ccc(C(F)(F)F)cc1)c1ncccc1C(F)(F)F)c1ccc(-c2nnn[nH]2)cc1 [Example 141, (S)-4-(1H-tetrazol-5-yl)-N-((4-(trifluoromethyl)phenyl)(3-(trifluoromethyl)pyridin-2-yl)methyl)benzamide] |  | 160 nM |  |
| Cc1ncoc1C(=O)N[C@@H](c1ccc(C(F)(F)F)cc1)c1ncccc1C(F)(F)F [Example 190, (S)-4-methyl-N-((4-(trifluoromethyl)phenyl)(3-(trifluoromethyl)pyridin-2-yl)methyl)oxazole-5-carboxamide] |  | 33.1 nM |  |
| O=C(N[C@@H](c1ccc(C(F)(F)F)cc1)c1ncccc1F)c1ccn2ccnc2c1 [Example 86, (S)-N-((3-fluoropyridin-2-yl)(4-(trifluoromethyl)phenyl)methyl)imidazo[1,2-a]pyridine-7-carboxamide] |  | 10.2 nM |  |
| O=C(N[C@@H](c1ccc(C(F)(F)F)cc1)c1ncccc1F)c1c[nH]c(=O)c(Br)c1 [Example 368, (S)-5-bromo-N-((3-fluoropyridin-2-yl)(4-(trifluoromethyl)phenyl)methyl)-6-oxo-1,6-dihydropyridine-3-carboxamide] |  | 21 nM |  |
| COC(=O)c1ccc(C(=O)N[C@@H](c2ccc(C(F)(F)F)cc2)c2ncccc2C(F)(F)F)cc1 [Example 140, (S)-methyl 4-(((4-(trifluoromethyl)phenyl)(3-(trifluoro-methyl)pyridin-2-yl)methyl)carbamoyl)benzoate] |  | 52.7 nM |  |

From US8710043B2, “TRPM8 antagonists and their use in treatments” (Amgen Inc., priority 2011, dated 2014)
